Common to all, as to format: cell-based
One assay has as its target T1, PPAR Delta (Homo sapiens, UniProt Q03181).
T1 sequence (Q03181 1-441): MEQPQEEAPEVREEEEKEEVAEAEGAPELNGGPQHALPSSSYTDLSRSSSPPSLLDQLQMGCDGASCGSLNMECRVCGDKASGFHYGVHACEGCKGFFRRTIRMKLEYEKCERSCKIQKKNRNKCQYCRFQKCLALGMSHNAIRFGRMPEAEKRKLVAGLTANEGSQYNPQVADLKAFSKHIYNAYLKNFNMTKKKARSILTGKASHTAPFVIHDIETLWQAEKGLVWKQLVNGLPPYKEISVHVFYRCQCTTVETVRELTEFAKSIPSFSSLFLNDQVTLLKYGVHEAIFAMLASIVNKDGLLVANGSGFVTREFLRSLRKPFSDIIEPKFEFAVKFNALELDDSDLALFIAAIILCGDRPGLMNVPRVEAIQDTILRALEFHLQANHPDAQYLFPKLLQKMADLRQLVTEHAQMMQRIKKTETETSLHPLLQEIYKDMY
Kind of assay: PathHunter NHR protein interaction / nuclear translocation agonist test, PPAR Delta. Particulars: for Emax: read-out: PPAR Delta Maximum Activation Response %.

The target of another assay is T2, PPAR Gamma (Homo sapiens, UniProt P37231).
T2 sequence (P37231 1-505): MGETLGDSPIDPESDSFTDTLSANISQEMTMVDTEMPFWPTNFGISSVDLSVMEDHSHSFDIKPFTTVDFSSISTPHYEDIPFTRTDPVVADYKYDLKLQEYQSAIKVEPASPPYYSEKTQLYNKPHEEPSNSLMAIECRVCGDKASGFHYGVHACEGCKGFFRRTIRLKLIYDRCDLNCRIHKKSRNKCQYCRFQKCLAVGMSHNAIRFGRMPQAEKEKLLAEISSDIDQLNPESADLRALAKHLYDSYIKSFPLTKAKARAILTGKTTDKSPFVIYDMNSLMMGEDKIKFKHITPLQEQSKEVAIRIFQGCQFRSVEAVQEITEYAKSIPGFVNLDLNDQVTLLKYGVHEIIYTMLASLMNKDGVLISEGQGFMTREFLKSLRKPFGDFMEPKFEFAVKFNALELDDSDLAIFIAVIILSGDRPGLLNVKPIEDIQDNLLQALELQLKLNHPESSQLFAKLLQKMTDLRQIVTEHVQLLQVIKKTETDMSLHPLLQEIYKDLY
Nature of the assay: PathHunter NHR protein interaction / nuclear translocation agonist test, PPAR Gamma. Particulars: for Emax: read-out: PPAR Gamma Maximum Activation Response %.

The next assay addresses T3, PPAR Alpha (Homo sapiens, UniProt Q07869).
T3 sequence (Q07869 1-468): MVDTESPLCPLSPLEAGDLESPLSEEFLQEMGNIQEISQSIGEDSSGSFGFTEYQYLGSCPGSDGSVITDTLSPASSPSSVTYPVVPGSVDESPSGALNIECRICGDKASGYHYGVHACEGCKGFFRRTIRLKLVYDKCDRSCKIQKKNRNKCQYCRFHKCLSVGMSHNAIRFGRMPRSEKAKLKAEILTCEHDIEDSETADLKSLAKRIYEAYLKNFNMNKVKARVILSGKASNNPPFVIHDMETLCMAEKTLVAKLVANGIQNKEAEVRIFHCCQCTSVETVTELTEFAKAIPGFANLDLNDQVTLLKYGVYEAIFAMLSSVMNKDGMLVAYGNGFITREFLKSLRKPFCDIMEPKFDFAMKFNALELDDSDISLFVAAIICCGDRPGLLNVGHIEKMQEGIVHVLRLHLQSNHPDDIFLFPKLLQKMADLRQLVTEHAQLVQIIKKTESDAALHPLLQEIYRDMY
Kind of assay: PathHunter NHR protein interaction / nuclear translocation agonist test, PPAR Alpha. Particulars: for Emax: read-out: PPAR Alpha Maximum Activation Response %.

Setting [1] is: agonist mode, read-out: PPAR Delta EC50.
[2] abbreviates: relative to known PPARδ agonist L-165,041 = 100%.
Where [3] appears, read: agonist mode, read-out: PPAR Gamma EC50.
Setting [4] is: relative to known PPARγ agonist Troglitazone = 100%.
Setting [5] is: agonist mode, read-out: PPAR Alpha EC50.

Like-named read-outs stand apart in the source and are kept apart here.

On to `Cc1cc(CCC2CN(C(=O)Oc3ccccc3)CC2C(=O)c2ccc(F)cc2)cc(C)c1OC(C)(C)C(=O)O` (single isomer, unassigned) [Compound 63], for which the EC50 at PPAR Delta (setting [1]) was less than 100 nM; at PPAR Gamma (setting [3]) it was 200 to 250 nM; at PPAR Alpha (setting [5]) it was less than 100 nM. In addition, the Emax at PPAR Delta (setting [2]), on PPAR Gamma (setting [4]) and on PPAR Alpha was 80 to 100% each time.

On to `CSc1ccc(C(=O)C2CN(C(=O)Oc3ccccc3)CC2Cc2cc(C)c(OC(C)(C)C(=O)O)c(C)c2)cc1` (stereo not drawn) [Compound 26], for which the EC50 was less than 100 nM on PPAR Delta (setting [1]), greater than 250 nM on PPAR Gamma (PPAR Gamma EC50 nM) and less than 100 nM at PPAR Alpha (PPAR Alpha EC50 nM). In addition, at PPAR Delta, the Emax fell in the range of 50 to 80%.

As to `Cc1cc(CC[C@H]2CN(C(=O)Oc3ccccc3)C[C@@H]2C(=O)c2ccc(S(C)(=O)=O)cc2)cc(C)c1OC(C)(C)C(=O)O` (racemic) [Compound 68], the EC50 at PPAR Delta (setting [1]) and at PPAR Gamma (setting [3]) was greater than 250 nM throughout. Further, the Emax on PPAR Delta, at PPAR Gamma (setting [4]) and on PPAR Alpha was 80 to 100% throughout.

Turning to `CSc1ccc(C(=O)C2CN(C(=O)Oc3ccccc3)CC2CCc2ccc(OC(C)(C)C(=O)O)cc2)cc1` (single isomer, unassigned) [Compound 80], the EC50 at PPAR Delta (setting [1]) is 150 to 200 nM; on PPAR Gamma (setting [3]), greater than 250 nM; at PPAR Alpha (setting [5]), less than 100 nM. In addition, the Emax on PPAR Delta (setting [2]), at PPAR Gamma (setting [4]) and at PPAR Alpha was 80 to 100% each time.

As for `CSc1ccc(C(=O)C2CN(C(=O)Oc3ccccc3)CC2CCc2ccc(OC(C)(C)C(=O)O)c(F)c2)cc1` (single isomer, unassigned) [Compound 82], the EC50 on PPAR Delta (setting [1]) was 100 to 150 nM; at PPAR Gamma (setting [3]), 200 to 250 nM; at PPAR Alpha (setting [5]), less than 100 nM. Moreover, the Emax on PPAR Delta (setting [2]), on PPAR Gamma (setting [4]) and on PPAR Alpha was 80 to 100% throughout.

In the case of `CSc1ccc(C(=O)C2CN(C(=O)Oc3ccc(Cl)cc3)CC2c2cc(C)c(OC(C)(C)C(=O)O)c(C)c2)cc1` (single isomer, unassigned) [Compound 13], the results for the EC50 at PPAR Delta (setting [1]), at PPAR Gamma (setting [3]) and on PPAR Alpha (setting [5]) were less than 100 nM, greater than 250 nM and less than 100 nM, respectively. For the same compound, the Emax on PPAR Delta is 50 to 80%; at PPAR Gamma it was 80 to 100%; on PPAR Alpha, 50 to 80%.

Take `CSc1ccc(C(=O)C2CN(C(=O)Oc3ccc(Br)cc3)CC2c2cc(C)c(OC(C)(C)C(=O)O)c(C)c2)cc1` (stereo not drawn) [Compound 46]: the EC50 on PPAR Delta (setting [1]) was less than 100 nM; at PPAR Gamma (setting [3]) it was greater than 250 nM; on PPAR Alpha (setting [5]) it was less than 100 nM. The Emax at PPAR Delta, on PPAR Gamma and at PPAR Alpha was 80 to 100% throughout.

Consider `CSc1ccc(C(=O)C2CN(C(=O)Oc3ccc(Cl)cc3)CC2c2cccc(OC(C)(C)C(=O)O)c2)cc1` (single isomer, unassigned) [Compound 34], for which the “PPAR Delta Maximum Activation Response %” value at PPAR Delta was “III (key: 100% ≥ I ≥ 80%; 80% ≥ II ≥ 50%; III < 50%)”. In addition, the EC50 on PPAR Delta (setting [1]) was greater than 250 nM; at PPAR Gamma (setting [3]) it was greater than 250 nM; on PPAR Alpha (setting [5]) it was less than 100 nM. In addition, the Emax at PPAR Gamma was 80 to 100%. On PPAR Alpha, the “PPAR Alpha Maximum Activation Response %” value was “I (key: 100% ≥ I ≥ 80%; 80% ≥ II ≥ 50%; III < 50%)”.

Consider `CSc1ccc(C(=O)C2CN(C(=O)Oc3ccccc3)CC2Cc2ccc(OC(C)(C)C(=O)O)c(F)c2)cc1` (single isomer, unassigned) [Compound 78], for which the EC50 is 100 to 150 nM on PPAR Delta (setting [1]), greater than 250 nM on PPAR Gamma (setting [3]) and 100 to 150 nM on PPAR Alpha (setting [5]). The Emax at PPAR Delta (setting [2]), on PPAR Gamma (setting [4]) and at PPAR Alpha was 80 to 100% in each case.

On to `CSc1ccc(C(=O)C2CN(C(=O)OC(C)C)CC2CCc2cc(C)c(OC(C)(C)C(=O)O)c(C)c2)cc1` (single isomer, unassigned) [Compound 58], for which the EC50 on PPAR Delta (setting [1]) was less than 100 nM; at PPAR Gamma (setting [3]), 200 to 250 nM; at PPAR Alpha (setting [5]) it was 100 to 150 nM. Further, the Emax fell in the range of 50 to 80% on PPAR Delta, 50 to 80% at PPAR Gamma and 80 to 100% on PPAR Alpha.

As for `Cc1cc(CC[C@H]2CN(C(=O)Oc3ccccc3)C[C@@H]2C(=O)c2ccc([S+](C)[O-])cc2)cc(C)c1OC(C)(C)C(=O)O` (mixture of isomers) [Compound 67], the EC50 at PPAR Delta (setting [1]) and on PPAR Gamma (setting [3]) was greater than 250 nM throughout. Also, the Emax on PPAR Delta, on PPAR Gamma (setting [4]) and at PPAR Alpha was 80 to 100% throughout.

With `Cc1cc(CCC2CN(C(=O)Oc3ccccc3)CC2C(=O)c2ccc(Cl)cc2)cc(C)c1OC(C)(C)C(=O)O` (single isomer, unassigned) [Compound 66], the “PPAR Delta Maximum Activation Response %” value on PPAR Delta is “I (key: 100% ≥ I ≥ 80%; 80% ≥ II ≥ 50%; III < 50%)”. Besides, the EC50 at PPAR Delta (setting [1]) was less than 100 nM; at PPAR Gamma (setting [3]), 150 to 200 nM; on PPAR Alpha (setting [5]), less than 100 nM.

For the compound `CSc1ccc(C(=O)[C@H]2CN(C(=O)OC3CCC(C)CC3)C[C@@H]2Cc2cc(C)c(OC(C)(C)C(=O)O)c(C)c2)cc1` (mixture of isomers) [Compound 54], the EC50 was 100 to 150 nM on PPAR Delta (setting [1]), 200 to 250 nM on PPAR Gamma (setting [3]) and less than 100 nM at PPAR Alpha (setting [5]). The Emax on PPAR Delta (setting [2]), at PPAR Gamma (setting [4]) and at PPAR Alpha was 80 to 100% each time.

In the case of `CSc1ccc(C(=O)C2CN(C(=O)Oc3ccc(Cl)cc3)CC2c2cc(C)c(OC(C)(C)C(=O)O)c(C)c2)cc1` (single isomer, unassigned) [Compound 14], the values for the EC50 at PPAR Delta (setting [1]), at PPAR Gamma (setting [3]) and on PPAR Alpha (setting [5]) were less than 100 nM, greater than 250 nM and less than 100 nM, respectively.

For the compound `CSc1ccc(C(=O)[C@H]2CNC[C@@H]2CCc2cc(C)c(OC(C)(C)C(=O)O)c(C)c2)cc1` (racemic) [Compound 56], the results for the EC50 on PPAR Delta (setting [1]), at PPAR Gamma (setting [3]) and at PPAR Alpha (setting [5]) were 200 to 250 nM, greater than 250 nM and greater than 250 nM, respectively. Besides, the Emax is 50 to 80% on PPAR Delta, less than 50% on PPAR Gamma and less than 50% on PPAR Alpha.

As for `CSc1ccc(C(=O)C2CN(C(=O)Oc3ccccc3)CC2Cc2ccc(OC(C)(C)C(=O)O)c(C)c2)cc1` (single isomer, unassigned) [Compound 77], the EC50 at PPAR Delta (setting [1]) was 150 to 200 nM; on PPAR Gamma (setting [3]), greater than 250 nM; on PPAR Alpha (setting [5]) it was 150 to 200 nM. In addition, the Emax at PPAR Delta (setting [2]), at PPAR Gamma (setting [4]) and on PPAR Alpha was 80 to 100% throughout.

Regarding `COC(=O)N1CC(CCc2cc(C)c(OC(C)(C)C(=O)O)c(C)c2)C(C(=O)c2ccc(SC)cc2)C1` (single isomer, unassigned) [Compound 57], the figures for the EC50 at PPAR Delta (setting [1]), at PPAR Gamma (setting [3]) and on PPAR Alpha (setting [5]) were less than 100 nM, 200 to 250 nM and less than 100 nM, respectively. Also, the Emax on PPAR Delta is 50 to 80%; at PPAR Gamma, 50 to 80%; on PPAR Alpha it was 80 to 100%.

Take `CSc1ccc(C(=O)C2CN(C(=O)Oc3ccccc3)CC2Cc2ccc(OC(C)(C)C(=O)O)cc2)cc1` (single isomer, unassigned) [Compound 76]: the results for the EC50 at PPAR Delta (setting [1]), at PPAR Gamma (setting [3]) and at PPAR Alpha (setting [5]) were 100 to 150 nM, greater than 250 nM and 100 to 150 nM, respectively. In addition, the Emax on PPAR Delta (setting [2]), on PPAR Gamma (setting [4]) and on PPAR Alpha was 80 to 100% each time.

As to `CSc1ccc(C(=O)[C@H]2CN(C)C[C@@H]2CCc2cc(C)c(OC(C)(C)C(=O)O)c(C)c2)cc1` (racemic) [Compound 55], the EC50 on PPAR Delta (PPAR Delta EC50 nM) is 200 to 250 nM; on PPAR Gamma (PPAR Gamma EC50 nM), greater than 250 nM; on PPAR Alpha (PPAR Alpha EC50 nM), greater than 250 nM. For the same compound, the figures for the Emax on PPAR Delta, at PPAR Gamma and on PPAR Alpha were 50 to 80%, less than 50% and less than 50%, respectively.

The record behind these values is patent US10526320B2, “Pyrrolidine derivatives as PPAR agonists” (GUANGDONG RAYNOVENT BIOTECH CO., LTD., priority 2016, dated 2020).
